For experiment [1], the target named is T1, Voltage-gated proton channel Hv1 (Mus musculus, UniProt Q3U2S8).
T1 construct: gene Hvcn1; endogenous Hv1 in BV2 microglial cells
T1 sequence (Q3U2S8 1-269): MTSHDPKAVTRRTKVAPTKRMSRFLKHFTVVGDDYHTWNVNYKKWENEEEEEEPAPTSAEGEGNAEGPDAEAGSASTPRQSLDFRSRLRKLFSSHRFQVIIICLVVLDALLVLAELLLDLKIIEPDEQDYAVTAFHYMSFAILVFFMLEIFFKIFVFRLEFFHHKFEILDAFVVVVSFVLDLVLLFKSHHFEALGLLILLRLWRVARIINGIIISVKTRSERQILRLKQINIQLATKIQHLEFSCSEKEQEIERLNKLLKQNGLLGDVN
In words: whole-cell patch clamp at +[…] mV in BV2 cells; BCECF pH-recovery assay, effect abolished by Hv1 shRNA. It counts as cell-based.

Experiment [2] has as its target T1, Voltage-gated proton channel Hv1. The experiment is described as follows: whole-cell patch clamp at +[…] mV in BV2 cells (activator); BCECF pH-recovery assay, effect abolished by Hv1 shRNA. It counts as cell-based. (In general: Patch clamp records ionic current or voltage across a cell membrane.)

Broadly, the IC50 is the midpoint of a concentration-inhibition curve. A low value points to greater potency. In general, EC50 refers to the concentration that produces a half-maximal response. A low value points to greater potency.

For `O=C(CC1Sc2ccccc2NC1=O)Nc1ccc(Cl)cc1` (centres unmarked) [YHV98-4], 2.6 ± 1.1 µM corresponded to half-maximal inhibition in experiment [1] (IC50).

For the compound `O=C(CC1Sc2ccccc2NC1=O)Nc1ccccc1Cl` (centres unmarked) [S-023-0515], the EC50 in experiment [2] turned out to be 8.41 ± 1.9 µM.

Source of the values: publication PMC12340723, “Validation of Hv1 channel functions in BV2 microglial cells using small molecule modulators” (Frontiers in Cellular Neuroscience, 2025).
